The target in assay [1] is BRD4 (I) (Homo sapiens (Human), UniProt O60885). The experiment in a line: Fluorescence anisotropy (FA) binding test on BRD4 (I). To be noted: BRD4 (I) 10 nM, fluorescent (+)-JQ1 substrate 5 nM, read-out: BRD4 (1) IC50. The protocol: The binding activity of the compound to BRD4 (I) was tested using a fluorescence anisotropy (FA) method. The principle of FA test is to calculate and analyze the fluorescence polarization values in the horizontal and vertical directions by detecting the change of molecular weight before and after the interaction of fluorescein-labeled small molecules with other molecules. If the equilibrium of the binding between the fluorescently labeled small molecule and macromolecule is established, it will move slowly when excited, and the measured fluorescence polarization value will increase. If the binding between the fluorescently labeled small molecule and the macromolecule is replaced by another ligand, its rotation or flipping speed in the free state will be faster, and the emitted light will be depolarized relative to the plane of the excitation light, and the measured polarized light value will decrease to calculate the fluorescence anisotropy of the sample.
Expression and purification of the BRD4(I) recognition domain: colonies of newly transformed plasmid DNA from E. coli BL21(DE3)-condon plus-RIL cells were cultivated in 50 mL of Terrific Broth medium containing 50 μg/mL kanamycin and 34 μg/mL chloramphenicol at 37° C. overnight (starting culture). The starting culture was then diluted 100-fold in 1 L of fresh TB medium and the cells were grown at 37° C. to an optical density of about 0.8 at OD600 and then the temperature was lowered to 16° C. When the system was equilibrated at 16° C., the optical density at OD600 was approximately 1.2, and protein expression was induced with 0.2 mmol of isopropyl-β-D-thiogalactopyranoside (IPTG) overnight at 16° C. Bacteria were harvested by centrifugation (4000×g, 20 minutes, 4° C.) and stored as a pellet at −80° C. The cells expressing His 6-tagged protein was resuspend in lysis buffer [50 mmol 4-hydroxyethylpiperazineethanesulfonic acid (HEPES), 25° C., pH 7.5, 500 mmol NaCl, 10 mmol imidazole, 5% glycerol and freshly added 0.5 mmol of tris(2-carboxyethyl)phosphine hydrochloride (TCEP) and 1 mmol of phenylmethanesulfonyl fluoride (PMSF)] and lysed at 4° C. using JN 3000PLUS high pressure homogenizer (JNBIO-Guangzhou, China). The lysate was clarified by centrifugation (12,000×g for 1 hour at 4° C.) and applied to a nickel-nitriloacetate agarose column. The column was washed once with 50 mL of wash buffer containing 30 mmol of imidazole. The protein was eluted using imidazole in an elution buffer in a stepwise elution (100-250 mmol imidazole in 50 mmol HEPES, 25° C., pH 7.5, 500 mmol NaCl, 5% glycerol). All fractions were collected and monitored by SDS-polyacrylamide gel electrophoresis (Bio-Rad Criterion TM Precast Gels, 4-12% Bis-Tris, 1.0 mm, from Bio-Rad, CA). After 1 mmol of dithiothreitol (DTT) was added, the eluted proteins were treated with tobacco […] virus (TEV) protease overnight at 4° C. to remove the His6 tag. The protein was concentrated and further purified by size exclusion chromatography on a Superdex 75 16/60 HiLoad gel filtration column. The samples were monitored by SDS-polyacrylamide gel electrophoresis and concentrated to 8-10 mg/mL with gel filtration buffer, 10 mmol Hepes pH 7.5, 500 mM NaCl, 1 mmol DTT, and used for protein binding assays and crystallization.
The fluorogenic substrate was (+)-JQ1 linked to a fluorescent molecule and the working concentration was 5 nM. BRD4 (I) protein had 10 nM of working concentration and the total reaction system was 40 μL. The buffer was 50 mM 4-hydroxyethylpiperazineethanesulfonic acid (HEPES) pH 7.4, 150 mM NaCl, 0.5 mM 3[(3-cholamidopropyl)dimethylammonio]propanesulfonate (CHAPS). […] The final concentration of DMSO was chosen to be 0.2%, taking into account the solubility of the compound and the effect of DMSO on the assay. All measurements were made under these conditions. […]
(In general: In fluorescence polarisation assays a small probe gives low polarisation when free and higher when bound to something large.)

The subject of assay [2] is human myeloma cells MM.1S. Briefly: MM.1S cell viability, CCK-8 method. Conditions: for IC50: 72 h treatment, CCK-8; for inhibitory activity against the MM.1S cell line (in words): compared with positive (+)-JQ1. The assay is classed as cell-based. The protocol: The MM.1S cell line was tested for cell viability. The test methods were as follows: human myeloma cells MM.1S were treated with compound for 72 h, and the proliferation inhibition effect and degree of the compound were detected by CCK-8 method.
For orientation: Tetrazolium dyes change colour on reduction, which living cells bring about.

With `Cc1ccc(-n2nnnc2-c2ccc3c(c2)N(C2CCCC2)C(C)C(=O)N3C)cc1` (stereo not drawn) [Example 4], the IC50 in assay [1] was 18.4 nM.

`C[C@@H]1C(=O)N(C)c2ccc(-c3nc(C(=O)N4CCN(C)CC4)nn3-c3ccccc3)cc2N1C1CCCC1` [Example 7]: the IC50 in assay [1] came to 7.6 nM.

On to `Cc1ccc(-n2nc(C(=O)N3CCN(C)CC3)nc2-c2ccc3c(c2)N(C2CCCC2)[C@H](C)C(=O)N3C)c(C)c1` [Example 9], for which the IC50 in assay [1] worked out at 8.2 nM; in assay [2] (Homo sapiens, MM1.S), 23 ± 7.42 nM.

Regarding `CCN1CCN(C(=O)c2nc(-c3ccc4c(c3)N(C3CCCC3)[C@H](C)C(=O)N4C)n(-c3ccc(C)cc3)n2)CC1` [Example 10], the IC50 stood at 4.96 nM in assay [1] and 25.8 ± 0.52 nM in assay [2] (Homo sapiens, MM1.S).

As for `Cc1ccc(-n2nc(C(=O)N3CCN(C4CC4)CC3)nc2-c2ccc3c(c2)N(C2CCCC2)[C@H](C)C(=O)N3C)cc1` [Example 11], in assay [1], the IC50 worked out at 5.08 nM.

Regarding `Cc1ccc(-n2nc(C(=O)N(C)CCN(C)C)nc2-c2ccc3c(c2)N(C2CCCC2)[C@H](C)C(=O)N3C)cc1` [Example 13], the 50% inhibitory concentration (IC50) is 8.3 nM in assay [1] and 22.4 ± 1.4 nM in assay [2] (Homo sapiens, MM1.S).

In the case of `Cc1ccc(-n2nc(C(=O)N3CC4CCC(C3)N4C)nc2-c2ccc3c(c2)N(C2CCCC2)[C@H](C)C(=O)N3C)cc1` [Example 14], the IC50 in assay [1] worked out at 4.5 nM; in assay [2] (Homo sapiens, MM1.S) it was 10.7 ± 1.71 nM. In addition, the “inhibitory activity against the MM.1S cell line (in words)” value (“inhibitory activity” below) in assay [2] is listed as “better inhibitory activity against the MM.1S cell line than the positive (+)-JQ1”.

`Cc1ccc(-n2nc(C(=O)N3CCN(C(C)C)CC3)nc2-c2ccc3c(c2)N(C2CCCC2)[C@H](C)C(=O)N3C)cc1` [Example 15]: in assay [1], the IC50 worked out at 4.2 nM.

Regarding `Cc1ccc(-n2nc(C(=O)N3CCN(C)CC3)nc2-c2ccc3c(c2)N(C2CCCC2)[C@H](C)C(=O)N3C)cc1F` [Example 16], the IC50 amounted to 4.06 nM in assay [1] and 29.4 ± 9.3 nM in assay [2] (Homo sapiens, MM1.S).

`Cc1ccc(-n2nc(C(=O)N3C4CCC3CN(C)C4)nc2-c2ccc3c(c2)N(C2CCCC2)[C@H](C)C(=O)N3C)cc1` [Example 18]: the IC50 in assay [1] stood at 6.5 nM; in assay [2] (Homo sapiens, MM1.S), 10.22 ± 0.02 nM. The “inhibitory activity” value in assay [2] was “better inhibitory activity against the MM.1S cell line than the positive (+)-JQ1”.

`Cc1ccc(-n2nc(C(=O)N3CCCN(C)CC3)nc2-c2ccc3c(c2)N(C2CCCC2)[C@H](C)C(=O)N3C)cc1` [Example 19]: the IC50 in assay [1] was found to be 4.6 nM.

Take `Cc1ccc(-n2nc(C(=O)N3CCC4(CCCC4)CC3)nc2-c2ccc3c(c2)N(C2CCCC2)[C@H](C)C(=O)N3C)cc1` [Example 20]: the IC50 in assay [1] is 25.4 nM.

For the compound `Cc1ccc(-n2nc(C(=O)N3CCC4(CCOC4)CC3)nc2-c2ccc3c(c2)N(C2CCCC2)[C@H](C)C(=O)N3C)cc1` [Example 21], the half-inhibitory concentration (IC50) in assay [1] was 7.1 nM.

As for `Cc1ccc(-n2nc(C(=O)N3CCN4CCCC4C3)nc2-c2ccc3c(c2)N(C2CCCC2)[C@H](C)C(=O)N3C)cc1` (stereo partly drawn) [Example 22], the IC50 in assay [1] stood at 8.1 nM.

Turning to `Cc1ccc(-n2nc(C(=O)N3C[C@@H](NC(=O)OC(C)(C)C)C4(CC4)C3)nc2-c2ccc3c(c2)N(C2CCCC2)[C@H](C)C(=O)N3C)cc1` [Example 23], the IC50 in assay [1] was found to be 9.2 nM.

In the case of `Cc1ccc(-n2nc(C(=O)N3C[C@@H](N)C4(CC4)C3)nc2-c2ccc3c(c2)N(C2CCCC2)[C@H](C)C(=O)N3C)cc1` [Example 24], the IC50 in assay [1] was 5.3 nM.

With `Cc1ccc(-n2nc(C(=O)N3C4CCC3CN(C)C4)cc2-c2ccc3c(c2)N(C2CCCC2)[C@H](C)C(=O)N3C)cc1` [Example 28], the IC50 in assay [1] was 6.7 nM.

As for `Cc1ccc(-n2nc(C(=O)N3CC4CCC(C3)N4C)cc2-c2ccc3c(c2)N(C2CCCC2)[C@H](C)C(=O)N3C)cc1` [Example 29], in assay [1], the IC50 turned out to be 7.7 nM.

Regarding `Cc1ccc(-n2c(C)nnc2-c2ccc3c(c2)N(C2CCCC2)[C@H](C)C(=O)N3C)cc1` [Example 32], the IC50 in assay [1] was determined as 5.1 nM.

Consider `Cc1ccc(-n2nc(C(=O)N3CCN(C)CC3)nc2-c2ccc3c(c2)N(C2CC2)C(C)C(=O)N3C)c(C)c1` (stereo not drawn) [Example 34], for which the IC50 in assay [1] was determined as 13.9 nM; in assay [2] (Homo sapiens, MM1.S), 9.11 ± 2.91 nM. Besides, the “inhibitory activity” value in assay [2] is reported as “better inhibitory activity against the MM.1S cell line than the positive (+)-JQ1”.

Take `CCN1CCN(C(=O)c2nc(-c3ccc4c(c3)N(C3CC3)C(C)C(=O)N4C)n(-c3ccc(C)cc3C)n2)CC1` (stereo not drawn) [Example 35]: the IC50 came to 14.5 nM in assay [1] and 15.5 ± 7.42 nM in assay [2] (Homo sapiens, MM1.S). The “inhibitory activity” value in assay [2] is on record as “better inhibitory activity against the MM.1S cell line than the positive (+)-JQ1”.

Regarding `Cc1ccc(-n2nc(C(=O)N3C[C@@H](C)N[C@@H](C)C3)nc2-c2ccc3c(c2)N(C2CC2)C(C)C(=O)N3C)cc1` (stereo partly drawn) [Example 36], the IC50 in assay [1] is 18.5 nM; in assay [2] (Homo sapiens, MM1.S), 3.13 nM. For the same compound, the “inhibitory activity” value in assay [2] is recorded as “better inhibitory activity against the MM.1S cell line than the positive (+)-JQ1”.

Take `Cc1ccc(-n2nc(C(=O)N3C[C@@H](C)N[C@@H](C)C3)nc2-c2ccc3c(c2)N(C(C)C)[C@H](C)C(=O)N3C)cc1` [Example 37]: the IC50 in assay [1] amounted to 15.1 nM; in assay [2] (Homo sapiens, MM1.S) it was 18.2 nM. The “inhibitory activity” value in assay [2] was “better inhibitory activity against the MM.1S cell line than the positive (+)-JQ1”.

Take `Cc1ccc(-n2nc(C(=O)N3C[C@@H](C)N[C@@H](C)C3)nc2-c2ccc3c(c2)N(C2COC2)[C@H](C)C(=O)N3C)cc1` [Example 38]: the IC50 in assay [1] is 13.6 nM.

For `Cc1ccc(-n2nc(C(=O)N3C[C@@H](C)N[C@@H](C)C3)nc2-c2ccc3c(c2)N(C2CCOCC2)[C@H](C)C(=O)N3C)cc1` [Example 39], the IC50 in assay [1] is 10.3 nM.

On to `Cc1ccc(-n2nc(C(=O)N3C[C@@H](C)N[C@@H](C)C3)nc2-c2ccc3c(c2)N(C2CCC(F)(F)CC2)[C@H](C)C(=O)N3C)cc1` [Example 40], for which the IC50 in assay [1] worked out at 16 nM.

On to `Cc1ccc(-n2nc(C(=O)N3C[C@@H](C)N[C@@H](C)C3)nc2-c2ccc3c(c2)N(C2CC(F)(F)C2)[C@H](C)C(=O)N3C)cc1` [Example 41], for which, in assay [1], the IC50 amounted to 20.1 nM.

Regarding `Cc1ccc(-n2nc(CN3C[C@@H](C)N[C@@H](C)C3)nc2-c2ccc3c(c2)N(C2CCCC2)[C@H](C)C(=O)N3C)cc1` [Example 47], in assay [1], the IC50 is 6.7 nM.

On to (+)-JQ1 [reference compound], for which the IC50 in assay [2] worked out at 19.3 ± 9.3 nM.

In general, IC50 refers to the concentration that gives 50% inhibition.

Source of the values: patent US11078188B2, “Dihydroquinoxaline bromodomain recognition protein inhibitor, preparation method and use thereof” (SHANGHAI INSTITUTE OF MATERIA MEDICA, CHINESE ACADEMY OF …, priority 2017, dated 2021).
